Data as given in patent publication US9499614B2, “Methods for modulating protein glycosylation profiles of recombinant protein therapeutics using monosaccharides and oligosaccharides” (AbbVie, Inc., priority 2013, dated 2016).
“And” between values parts separate entries of the source, which are not always exact repeats. Equal values may be shown once.

Assays:
Type in all cases: cell-based, Chinese Hamster
[1] = test system: Cell Line 1; test: Shake flask fedbatch culture of Cell Line 1, cell culture performance (Example 1)
Procedure: (§1) Two recombinant Chinese Hamster Ovary (CHO) cell lines expressing two different humanized monoclonal antibodies (Antibody 1, Antibody 2) were evaluated in two different culture vessels (shaker flasks and laboratory scale bioreactors). Both cell lines were of CHO DUX-B11 origin based on a dhfr (dihydrofolate reductase) expression system. Both cell lines were cultured in the same chemically defined basal media (CDBM), with Cell Line 1 also utilizing a chemically-defined feed media (CDFM). Each of the respective media were supplemented with selected monosaccharides and oligosaccharides to evaluate their potential impact on the resulting N-glycan oligosaccharide profile. In preparing the cultures, the cell lines were serially expanded through separate seed train inoculums to generate enough cells for inoculation.
Viable cell density (VCD) and cell viability values were measured through trypan blue exclusion via Cedex automated cell counters (Roche Applied Science, Indianapolis, Ind.), glucose and lactate values were measured with a ABL-805 (Radiometer Medical, Denmark) blood gas analyzer. Offline pH, dissolved oxygen (DO), and pCO2 measurements were performed with a ABL-805 (Radiometer Medical, Denmark) blood gas analyzer. Osmolality was measured on a Multi-Osmette 2430 osmometer (Precision Systems, Natick, Mass.).
Antibody titers were measured from crude cell culture harvests on a Poros A™ (Life Technologies, Carlsbad, Calif.) affinity column using an Agilent (Santa Clara, Calif.) 1200 Series HPLC, or equivalent, operating with a low pH, step elution gradient with detection at 280 nm. Absolute concentrations were assigned with respect to reference standard calibration curves.
Cell Line 1 was cultured in shake flasks in fedbatch mode after an abbreviated seed train. Sucrose and tagatose were supplemented into chemically-defined basal and feed media at concentrations of 30, 50, and 70 mM, and compared to an unsupplemented control condition. The viable cell density (VCD), viability, and harvest titer results are shown in FIGS. 3A-3C and FIGS. 5A-5C for the sucrose, and tagatose conditions, respectively. Both sugars facilitated a slight decrease in VCD, with the higher concentrations also supporting the lowest peak VCD. […] As such, the upper threshold of sucrose or tagatose concentration should not be exceeded.

[2] = test system: Cell Line 2; test: N-glycan oligosaccharide profiling, Cell Line 2 shake flasks (Example 1); settings: 30 mM supplement vs control
Procedure: as §1
(§2) Purified antibodies subjected to additional analytical characterization were purified using MabSelect™ Protein A (GE Healthcare, Piscataway, N.J.) using a low pH, step elution gradient, followed by buffer exchange using Corning Lifesciences (Tewksbury, Mass.) Spin Concentrator X UF columns according to the manufacturers' recommended procedures.
(§3) Approximately 200 μg of Protein A purified samples from Cell Lines 1 and 2 were treated with N-glycanase at 37° C. overnight to remove the N-glycans from the protein. The protein was precipitated and the supernatant was taken for subsequent chemical derivatization of the reducing end of the released glycans with 2-aminobenzamide (2-AB) dye. Following the derivatization step, the excess label was removed using clean up cartridges and the samples were analyzed using normal phase HPLC with fluorescent detection. Mobile phase A was 100% acetonitrile and mobile phase B was 50 mM ammonium formate pH 4.4. The glycans were eluted from a polyamide column (Prozyme, Hayward, Calif.) using a shallow gradient. The labeled glycans were detected using a fluorescence detector with an excitation wavelength of 330 nm and an emission wavelength of 420 nm.
Cell Line 2 was evaluated in shake flask culture in semi-fedbatch mode. Sucrose was supplemented into the basal media at various concentrations to evaluate the resulting impact on cell culture performance, as well as the protein glycosylation profile. On average, 7 mM, 15 mM, and 30 mM sucrose all nominally impacted overall cell growth, with only slight drops in peak viable cell density (1×10^6-2×10^6 cells/mL) as compared to the unsupplemented control. […] There was however, a very significant impact on the protein glycosylation profiles of harvest samples across all sucrose concentrations evaluated (FIG. 12). A concentration-dependent modulation of protein glycosylation was observed that was consistent with the results obtained for Cell Line 1.

[3] = test system: Cell Line 1; test: N-glycan oligosaccharide profiling, Cell Line 1 (Antibody 1) shake flasks (Example 2)
Procedure: (§4) Two recombinant Chinese Hamster Ovary (CHO) cell lines expressing two different recombinant glycoproteins were evaluated in two different cultures vessels (shaker flasks and 3 L laboratory scale bioreactors). Cell Line 1 expressed Antibody 1, Cell Line 2 expressed Dual Variable Domain Immunoglobulin 1 (DVD 1) and Cell Line 3 expressed Antibody 2. Antibodies 1 and 2 are IgG1 proteins, and DVD 1 is an immunoglobulin with two variable domains as documented previously (Wu C. et al., (2007) Nat. Biotechnol 25(11):1290-1297). All cell lines were of CHO DUX-B11 origin based on a dhfr (dihydrofolate reductase) expression system. All cell lines were cultured in the same chemically defined basal media. Cell lines 1 and 2 were fed with the same chemically-defined feed media, but Cell Line 1 was fed media that was formulated at a 50% higher concentration. Each of the respective media were supplemented with either sucrose or tagatose to evaluate their potential impact on the resulting N-glycan oligosaccharide profile. All sugars were purchased from Sigma-Aldrich (St. Louis, Mo.). In preparation of the cultures, the cell lines were serially expanded through separate seed train inoculums to generate enough cells for inoculation.
as §2, §3
(§5) Experimental results are expressed as mean±SD for those results generated from at least three independent cultures. Experimental results are expressed as the measured value for those results generated from less than three independent cultures. Results were evaluated for statistical significance through 2-sided t-tests, with a requirement of p<0.05 relative to the unsupplemented control conditions.
Cell Line 1 was cultured in shake flasks in fedbatch mode after an abbreviated seed train. Sucrose and tagatose were supplemented into chemically-defined basal and feed media at concentrations of 1, 10, 30, 50, and 70 mM, and compared to unsupplemented control conditions. The viable cell density (VCD), viability, and harvest titer results are shown in FIGS. 13A-13C for the sucrose supplemented cultures and FIGS. 14A-14C for the tagatose supplemented cultures.

[4] = test system: Cell Line 2; test: N-glycan oligosaccharide profiling, Cell Line 2 (DVD 1) shake flasks (Example 2); settings: 50 mM supplement vs control
Procedure: as §4, §2, §3, §5
Cell Line 2 was cultured in shake flasks in fed batch mode after an abbreviated seed train. Sucrose and tagatose were supplemented into chemically-defined basal and feed media at concentrations of 1, 30, and 50 mM, and process performance results were compared to unsupplemented control conditions. The viable cell density (VCD), viability, and harvest titer results are shown in FIGS. 15A-15C for the sucrose supplemented cultures and FIGS. 16A-16C for the tagatose supplemented cultures.

SMILES	Harvest titer (adverse impact) ([1]; 30 mM supplement vs control)	Harvest titer (adverse impact) ([1]; 50 mM supplement vs control)	Harvest titer (adverse impact) ([1]; 70 mM supplement vs control)	cumulative increase in overall mannosylated N-glycans ([3]; 70 mM supplement vs control)	drop in NGA2F species ([3]; 70 mM supplement vs control)	increase in Man 5 species ([3]; 70 mM supplement vs control)	increase in Man 6 species ([3]; 70 mM supplement vs control)	increase in Man 7 species ([3]; 70 mM supplement vs control)	increase in Man 8 species ([3]; 70 mM supplement vs control)	increase in NGA2F-GlcNAc species ([3]; 70 mM supplement vs control)	overall decrease in the fucosylation level ([3]; 70 mM supplement vs control)	cumulative increase in overall mannosylated N-glycans [4]	decrease in NA1F species [4]	decrease in NGA2F species [4]	increase in NGA2F-GlcNAc species [4]	overall decrease in the fucosylation level [4]	other results
OC[C@H]1O[C@@](CO)(O[C@H]2O[C@H](CO)[C@@H](O)[C@H](O)[C@H]2O)[C@@H](O)[C@@H]1O [sucrose]	did not adversely impact titer	did not adversely impact titer	reduce the harvest titer significantly	37%	44%	19%	10%	6%	2%	8%	37%	8%	1%	20%	8%	13%	cell viability ([1]; 70 mM supplement vs control): decrease in cell viability that was larger, and earlier in the culture; cumulative increase in overall mannosylated N-glycans [2]: 19%; drop in NGA2F species [2]: 27%; drop in overall fucosylation [2]: 19%; increase in Man 5 species [2]: ≤ 17%; increase in Man 6 species [2]: 1%; increase in Man 7 species [2]: 1%; decrease in NA1F species ([3]; 70 mM supplement vs control): 1%; overall N-glycan core fucosylation ([3]; 10, 30, 50 and 70 mM): decreased in a statistically significant manner; increase in Man 5 species [4]: 7% and 3%; increase in Man 6 species [4]: 1%
O=C(CO)[C@@H](O)[C@@H](O)[C@H](O)CO [tagatose]	did not adversely impact harvest titer	did	did	15%	23%	8%	4%	2%	1%	8%	15%	4%	1%	9%	5%	5%	N-glycan profiles compared to the control culture ([3]; 1, 10 and 30 mM): not practically different compared to the control culture
